# Laboratory results reported in patent publication US8445636B2, “Antimicrobial and anticancer lipopeptides” (Yeda Research & Development Co. Ltd., priority 2003, dated 2013).
# Like-named read-outs stand apart in the source and are kept apart here. Non-standard residues stand in square brackets, D forms with d. Residues, ends and D or L forms follow the SMILES beside them. *: point of attachment. Palmitoyl = CCCCCCCCCCCCCCCC(=O)*; Lauroyl = CCCCCCCCCCCC(=O)*
# Key:
# Format in all cases: cell-based
# [1] = test system: Aspergillus fumigatus ATCC 26430; test: microbe, parasite or virus in culture
# [2] = test system: Candida albicans ATCC 10231; test: microbe, parasite or virus in culture
# Method: (§1) The antifungal activity of the lipopeptides was examined in sterile 96-well plates (Nunc F96 microtiter plates) in a final volume of 200 μL as follows: 100 µl of a suspension containing fungi at a concentration of 1×10^4 Colony-Forming Units (CFU)/ml in culture medium (RPMI 1640, 0.165 M MOPS with L-glutamine, without NaHCO3) at pH 7.4 or pH 5.5 (adjustment of the pH was done by diluted solutions of HCl and NaOH) were added to 100 μl of water containing the peptide in serial 2-fold dilutions in water. The fungi were incubated in the presence of the lipopeptides for 24-48 h at 35° C. in a Binder KB115 incubator under agitation. Growth inhibition was determined by measuring the absorbance at 620 nm with a Microplate autoreader E1309 (Bio-Tek Instruments). Antifungal activity is expressed as the minimal inhibitory concentration (MIC), the concentration at which 100% inhibition of fungi growth was observed after the incubation time mentioned above. The fungi used were: Aspergillus niger ATCC 9642, Candida albicans ATCC 10231 and Cryptococcus neoformans ATCC 66031. If not indicated otherwise, the fungi growth was detected at pH 7.4.
# [3] = test system: Acinetobacter baumannii ATCC 19606
# Method: (§2) The antibacterial activity of the lipopeptides was examined in sterile 96-well plates (Nunc F96 microtiter plates) in a final volume of 100 μl as follows: Aliquots (50 μl) of a suspension containing bacteria at concentration of 1×10^6 Colony-Forming Units (CFU)/ml in culture LB (Lauria broth) medium (pH 7.4 or pH 5.5) were added to 50 μl of water containing the lipopeptide in serial 2-fold dilutions in water. Adjustment of the pH was done by diluted solutions of HCl and NaOH Inhibition of growth was determined by measuring the absorbance at 600 nm with a Microplate autoreader E1309 (Bio-Tek Instruments), after an incubation time of 18-20 h at 37° C. Antibacterial activities were expressed as the minimal inhibitory concentration (MIC), the concentration at which 100% inhibition of growth was observed after 18-20 h of incubation. The bacteria used were: Escherichia coli ATCC 25922, Acinetobacter baumannii ATCC 19606, Pseudomonas aeruginosa ATCC 27853, Staphylococcus aureus ATCC 6538P, Enterococcus faecalis ATCC 29212, Enterobacter cloacae ATCC 49141. The antibacterial activity of lipopeptides was also examined against resistant bacteria: methicilin-resistant Staphylococcus aureus (MRSA) ATCC 700698 and vancomycin-resistant Enterococcus faecium (VRE) ATCC 700221. If not indicated otherwise, the bacterial growth was detected at pH 7.4.
# [4] = test system: Staphylococcus aureus ATCC 6538P
# Method: as §2
# [5] = test system: Cryptococcus neoformans ATCC MYA-422; test: microbe, parasite or virus in culture; details: ATCC MYA-422, pH 7.4; read-out: Minimal Inhibitory Concentration, Cyrptococcus neoformans (ATCC MYA-422)
# E. coli D21 = test system: E. coli D21
# [6] = test system: Pseudomonas aeruginosa ATCC 27853
# Method: as §2
# [7] = test system: Cryptococcus neoformans ATCC 66031; test: microbe, parasite or virus in culture
# Method: as §1
# [8] = test system: Escherichia coli ATCC 25922
# Method: as §2
# [9] = ATCC 26430, pH 7.4, read-out: Minimal Inhibitory Concentration, Aspergillus Fomigatus (ATCC 26430)
# [10] = ATCC 10231, pH 7.4, read-out: Minimal Inhibitory Concentration, Candida Albicans (ATCC 10231)
compound,measurement,setting,value
CCCCCCCCCCCCCC(=O)N[C@@H](CCCCN)C(=O)N[C@@H](CCCCN)C(=O)N[C@@H](CCCCN)C(N)=O [MYR-KKK],MIC,[1]; [9],100 µM
same,MIC,[2]; [10],>100 µM
same,"Minimal Inhibitory Concentration, A. baumannii ATCC 19606","[3]; ATCC 19606, pH 7.4",>100 µM
same,"Minimal Inhibitory Concentration, S. aureus ATCC 6538P","[4]; ATCC 6538, pH 7.4",12.5 µM
same,MIC,[5],12.5 µM
same,"Minimal Inhibitory Concentration, E. coli-D21","E. coli D21; D21, pH 7.4",25 µM
"CCCCCCCCCCCCCCCC(=O)N[C@@H](CCC(=O)O)C(=O)N[C@H](CCCCN)C(=O)N[C@@H](CCCCN)C(N)=O [PA-EKK, Palmitoyl-Glu-D-Lys-Lys-NH2] (Palmitoyl-Glu-[dK]-Lys-NH2)",MIC,[1]; [9],25 µM
same,MIC,[2]; [10],25 µM
same,"Minimal Inhibitory Concentration, P. aeruginosa ATCC 27853","[6]; ATCC 27853, pH 7.4",>100 µM
same,"Minimal Inhibitory Concentration, A. baumannii ATCC 19606","[3]; ATCC 19606, pH 7.4",>100 µM
same,"Minimal Inhibitory Concentration, S. aureus ATCC 6538P","[4]; ATCC 6538, pH 7.4",25 µM
same,MIC,[5],12.5 µM
same,"Minimal Inhibitory Concentration, E. coli-D21","E. coli D21; D21, pH 7.4",100 µM
"CCCCCCCCCCCCCCCC(=O)N[C@@H](CCC(=O)O)C(=O)N[C@@H](CCCCN)C(=O)N[C@H](CCCCN)C(=O)N[C@@H](CCCCN)C(N)=O [PA-EKKK, Palmitoyl-Glu-Lys-D-Lys-Lys-NH2] (Palmitoyl-EK[dK]K-NH2)",MIC,[1]; [9],12.5 µM
same,MIC,[2]; [10],25 µM
same,"Minimal Inhibitory Concentration, P. aeruginosa ATCC 27853","[6]; ATCC 27853, pH 7.4",>100 µM
same,"Minimal Inhibitory Concentration, A. baumannii ATCC 19606","[3]; ATCC 19606, pH 7.4",>100 µM
same,"Minimal Inhibitory Concentration, S. aureus ATCC 6538P","[4]; ATCC 6538, pH 7.4",12.5 µM
same,MIC,[5],6.25 µM
same,"Minimal Inhibitory Concentration, E. coli-D21","E. coli D21; D21, pH 7.4",25 µM
"CCCCCCCCCCCCCCCC(=O)N[C@@H](CCCCN)C(=O)N[C@@H](C)C(=O)N[C@H](C)C(=O)N[C@@H](CCCCN)C(N)=O [PA-KAAK, Palmitoyl-Lys-Ala-D-Ala-Lys-NH2] (Palmitoyl-KA[dA]K-NH2)",MIC,[1]; [9],12.5 µM
same,MIC,[2]; [10],25 µM
same,"Minimal Inhibitory Concentration, P. aeruginosa ATCC 27853","[6]; ATCC 27853, pH 7.4",100 µM
same,"Minimal Inhibitory Concentration, A. baumannii ATCC 19606","[3]; ATCC 19606, pH 7.4",100 µM
same,"Minimal Inhibitory Concentration, S. aureus ATCC 6538P","[4]; ATCC 6538, pH 7.4",6.25 µM
same,MIC,[5],3.12 µM
same,"Minimal Inhibitory Concentration, E. coli-D21","E. coli D21; D21, pH 7.4",6.25 µM
CCCCCCCCCCCCCCCC(=O)N[C@@H](CCCCN)C(=O)N[C@@H](CCC(=O)O)C(N)=O [PA-KE] (Palmitoyl-Lys-Glu-NH2),MIC,[1]; [9],>100 µM
same,MIC,[2]; [10],>100 µM
same,"Minimal Inhibitory Concentration, P. aeruginosa ATCC 27853","[6]; ATCC 27853, pH 7.4",>100 µM
same,"Minimal Inhibitory Concentration, A. baumannii ATCC 19606","[3]; ATCC 19606, pH 7.4",>100 µM
same,"Minimal Inhibitory Concentration, S. aureus ATCC 6538P","[4]; ATCC 6538, pH 7.4",>100 µM
same,MIC,[5],>100 µM
same,"Minimal Inhibitory Concentration, E. coli-D21","E. coli D21; D21, pH 7.4",>100 µM
"CCCCCCCCCCCCCCCC(=O)N[C@@H](CCCCN)C(=O)N[C@H](CCCCN)C(=O)N[C@@H](CCC(=O)O)C(=O)N[C@@H](CCCCN)C(N)=O [PA-KKEK, Palmitoyl-Lys-D-Lys-Glu-Lys-NH2] (Palmitoyl-K[dK]EK-NH2)",MIC,[1]; [9],50 µM
same,MIC,[2]; [10],50 µM
same,"Minimal Inhibitory Concentration, P. aeruginosa ATCC 27853","[6]; ATCC 27853, pH 7.4",100 µM
same,"Minimal Inhibitory Concentration, A. baumannii ATCC 19606","[3]; ATCC 19606, pH 7.4",100 µM
same,"Minimal Inhibitory Concentration, S. aureus ATCC 6538P","[4]; ATCC 6538, pH 7.4",25 µM
same,MIC,[5],12.5 µM
same,"Minimal Inhibitory Concentration, E. coli-D21","E. coli D21; D21, pH 7.4",25 µM
CCCCCCCCCCCCCCCC(=O)N[C@@H](CCCCN)C(=O)N[C@@H](CCCCN)C(=O)N[C@@H](CCCCN)C(=O)N[C@@H](CCCCN)C(N)=O [PA-KKKK] (Palmitoyl-KKKK-NH2),MIC,[1]; [9],12.5 µM
same,MIC,[2]; [10],25 µM
same,"Minimal Inhibitory Concentration, P. aeruginosa ATCC 27853","[6]; ATCC 27853, pH 7.4",3.12 µM
same,"Minimal Inhibitory Concentration, S. aureus ATCC 6538P","[4]; ATCC 6538, pH 7.4",25 µM
same,MIC,[5],1.56 µM
same,"Minimal Inhibitory Concentration, E. coli-D21","E. coli D21; D21, pH 7.4",12.5 µM
CCCCCCCCCCCCCCCC(=O)N[C@@H](CCCCN)C(N)=O [PA-K],MIC,[1]; [9],>100 µM
same,MIC,[2]; [10],>100 µM
same,"Minimal Inhibitory Concentration, P. aeruginosa ATCC 27853","[6]; ATCC 27853, pH 7.4",>100 µM
same,"Minimal Inhibitory Concentration, A. baumannii ATCC 19606","[3]; ATCC 19606, pH 7.4",>100 µM
same,"Minimal Inhibitory Concentration, S. aureus ATCC 6538P","[4]; ATCC 6538, pH 7.4",>100 µM
same,MIC,[5],6.25 µM
same,"Minimal Inhibitory Concentration, E. coli-D21","E. coli D21; D21, pH 7.4",>100 µM
"CCCCCCCCCCCC(=O)N[C@H](CC(C)C)C(=O)N[C@@H](CCCCN)C(=O)N[C@@H](Cc1c[nH]cn1)C(=O)N[C@H](CC(C)C)C(=O)N[C@H](CC(C)C)C(=O)N[C@@H](CCCCN)C(=O)N[C@@H](Cc1c[nH]cn1)C(=O)N[C@H](CC(C)C)C(=O)N[C@H](CC(C)C)C(=O)N[C@@H](CCCCN)C(=O)N[C@@H](Cc1c[nH]cn1)C(=O)N[C@H](CC(C)C)C(N)=O [lipopeptide 28, (CH3-(CH2)10-CO-)-D-Leu-Lys-His-D-Leu-D-Leu-Lys-His-D-Leu-D-Leu-Lys-His-D-Leu-NH2] (Lauroyl-[dL]KH[dL][dL]KH[dL][dL]KH[dL]-NH2)",MIC,"[1]; ATCC 26430, pH 5.5, read-out: Minimal inhibitory concentrations, A. Fumig. With serum",100 µM
same,MIC,"[1]; ATCC 26430, pH 5.5, read-out: Minimal inhibitory concentrations, A. Fumig. Without serum",12.5 µM
same,MIC,"[1]; ATCC 26430, pH 7.4, read-out: Minimal inhibitory concentrations, A. Fumig. With serum",100 µM
same,MIC,"[1]; ATCC 26430, pH 7.4, read-out: Minimal inhibitory concentrations, A. Fumig. Without serum",25 µM
same,MIC,"[7]; ATCC 66031, pH 5.5, read-out: Minimal inhibitory concentrations, C. Neofor. With serum",12.5 µM
same,MIC,"[7]; ATCC 66031, pH 5.5, read-out: Minimal inhibitory concentrations, C. Neofor. Without serum",<0.78 µM
same,MIC,"[7]; ATCC 66031, pH 7.4, read-out: Minimal inhibitory concentrations, C. Neofor. With serum",6.25 µM
same,MIC,"[7]; ATCC 66031, pH 7.4, read-out: Minimal inhibitory concentrations, C. Neofor. Without serum",1.56 µM
same,MIC,"[2]; ATCC 10231, pH 5.5, read-out: Minimal inhibitory concentrations, C. Albicans With serum",>100 µM
same,MIC,"[2]; ATCC 10231, pH 5.5, read-out: Minimal inhibitory concentrations, C. Albicans Without serum",12.5 µM
same,MIC,"[2]; ATCC 10231, pH 7.4, read-out: Minimal inhibitory concentrations, C. Albicans With serum",>100 µM
same,MIC,"[2]; ATCC 10231, pH 7.4, read-out: Minimal inhibitory concentrations, C. Albicans Without serum",12.5 µM
same,"Minimal inhibitory concentrations, P. Aeruginosa ATCC 27853","[6]; ATCC 27853, pH 5.5",>100 µM
same,"Minimal inhibitory concentrations, P. Aeruginosa ATCC 27853","[6]; ATCC 27853, pH 7.4",50 µM
same,"Minimal inhibitory concentrations, A. baumannii ATCC 19606","[3]; ATCC 19606, pH 5.5",>100 µM
same,"Minimal inhibitory concentrations, A. baumannii ATCC 19606","[3]; ATCC 19606, pH 7.4",50 µM
same,"Minimal inhibitory concentrations, S. aureus II ATCC 6538P","[4]; ATCC 6538, pH 5.5",>100 µM
same,"Minimal inhibitory concentrations, S. aureus II ATCC 6538P","[4]; ATCC 6538, pH 7.4",18.75 µM
same,"Minimal inhibitory concentrations, E. Coli ATCC 25922","[8]; ATCC 25922, pH 5.5",>100 µM
same,"Minimal inhibitory concentrations, E. Coli ATCC 25922","[8]; ATCC 25922, pH 7.4",100 µM
same,"Minimal inhibitory concentrations, E. Coli D21","E. coli D21; D21, pH 5.5",>100 µM
same,"Minimal inhibitory concentrations, E. Coli D21","E. coli D21; D21, pH 7.4",50 µM
